Assay results reported in patent US20240307419A1, “CONFORMATIONALLY-CONSTRAINED INHIBITORS OF 3C OR 3C-LIKE PROTEASES” (priority 2021, published 2024).

Target: SARS-CoV-2 3CLpro (Severe acute respiratory syndrome coronavirus 2 (2019-nCoV) (SARS-CoV-2), UniProt P0DTD1)
Test: biochemical
Type: biochemical
Details: read-out: IC50

Compound | IC50 [nM]
CCCCCC12CCC(COC(=O)N[C@@H](CC(C)C)C(=O)N[C@H](C=O)C[C@@H]3CCNC3=O)(CC1)CC2 [Compound 2i, (4-Pentylbicyclo[2.2.2]octan-1-yl)methyl ((S)-4-methyl-1-oxo-1-(((S)-1-oxo-3-((S)-2-oxopyrrolidin-3-yl)propan-2-yl)amino)pentan-2-yl)carbamate] | 270 ± 20
CC(C)C[C@H](NC(=O)OCC12CC3CC(CC(C3)C1)C2)C(=O)N[C@H](C=O)C[C@H]1CCNC1=O [Compound 2l, ((3S,5S,7S)-Adamantan-1-yl)methyl-d2 ((S)-4-methyl-1-oxo-1-(((S)-1-oxo-3-((S)-2-oxopyrrolidin-3-yl)propan-2-yl)amino)pentan-2-yl)carbamate] | 290 ± 40
CC(C)C[C@H](NC(=O)OC[C@@]12C[C@@H]3C[C@@H](C[C@@](O)(C3)C1)C2)C(=O)N[C@H](C=O)C[C@@H]1CCNC1=O [Compound 2o, ((1r,3R,5R,7S)-3-Hydroxyadamantan-1-yl)methyl-d2 ((S)-4-methyl-1-oxo-1-(((S)-1-oxo-3-((S)-2-oxopyrrolidin-3-yl)propan-2-yl)amino)pentan-2-yl)carbamate] | 740 ± 260
CCCCCC12CCC(COC(=O)N[C@@H](CC(C)C)C(=O)N[C@@H](C[C@@H]3CCNC3=O)C(O)S(=O)(=O)O)(CC1)CC2 (stereo partly drawn) [Compound 3i, Sodium (2S)-1-hydroxy-2-((S)-4-methyl-2-((((4-pentylbicyclo[2.2.2]octan-1-yl)methoxy)carbonyl)amino)pentanamido)-3-((S)-2-oxopyrrolidin-3-yl)propane-1-sulfonate] | 300 ± 20
[2H]C([2H])(OC(=O)N[C@@H](CC(C)C)C(=O)N[C@@H](C[C@@H]1CCNC1=O)C(O)S(=O)(=O)[O-])C12CCC(CCCCC)(CC1)CC2.[Na+] (stereo partly drawn) [Compound 3j, Sodium (2S)-1-hydroxy-2-((S)-4-methyl-2-((((4-pentylbicyclo[2.2.2]octan-1-yl)methoxy-d2)carbonyl)amino)pentanamido)-3-((S)-2-oxopyrrolidin-3-yl)propane-1-sulfonate] | 310 ± 60
CC(C)C[C@H](NC(=O)OCC12CC3CC(CC(C3)C1)C2)C(=O)N[C@@H](C[C@H]1CCNC1=O)C(O)S(=O)(=O)O (stereo partly drawn) [Compound 3l, Sodium (2S)-2-((S)-2-(((((3S,5S,7S)-adamantan-1-yl)methoxy-d2)carbonyl)amino)-4-methylpentanamido)-1-hydroxy-3-((S)-2-oxopyrrolidin-3-yl)propane-1-sulfonate] | 270 ± 40
CC(C)C[C@H](NC(=O)OCC12CC3CC(CC(O)(C3)C1)C2)C(=O)N[C@@H](C[C@H]1CCNC1=O)C(O)S(=O)(=O)O (stereo partly drawn) [Compound 3o, Sodium (2S)-1-hydroxy-2-((S)-2-(((((1r,3R,5R,7S)-3-hydroxyadamantan-1-yl)methoxy-d2)carbonyl)amino)-4-methylpentanamido)-3-((S)-2-oxopyrrolidin-3-yl)propane-1-sulfonate] | 780 ± 180

Tested on: CRFK cells
Test: not given
Details: cat

Compound | CC50 [µM]
CC(C)C[C@H](NC(=O)OC1CC2(C1)CN(S(C)(=O)=O)C2)C(=O)N[C@H](C=O)C[C@H]1CCNC1=O [Compound 4b, 2-(Methylsulfonyl)-2-azaspiro[3.3]heptan-6-yl ((S)-4-methyl-1-oxo-1-(((S)-1-oxo-3-((R)-2-oxopyrrolidin-3-yl)propan-2-yl)amino)pentan-2-yl)carbamate] | > 100
CC(C)C[C@H](NC(=O)OC1CC2(C1)CN(S(C)(=O)=O)C2)C(=O)N[C@@H](C[C@H]1CCNC1=O)C(O)S(=O)(=O)O (stereo partly drawn) [Compound 4c, Sodium (2S)-1-hydroxy-2-((S)-4-methyl-2-((((2-(methylsulfonyl)-2-azaspiro[3.3]heptan-6-yl)oxy)carbonyl)amino)pentanamido)-3-((R)-2-oxopyrrolidin-3-yl)propane-1-sulfonate] | > 100
CC(C)C[C@H](NC(=O)OC1CC2(CCN(C(=O)OC(C)(C)C)C2)C1)C(=O)N[C@H](C=O)C[C@H]1CCNC1=O (stereo partly drawn) [Compound 5b, Tert-butyl 2-((((S)-4-methyl-1-oxo-1-(((S)-1-oxo-3-((R)-2-oxopyrrolidin-3-yl)propan-2-yl)amino)pentan-2-yl)carbamoyl)oxy)-6-azaspiro[3.4]octane-6-carboxylate] | > 100
CC(C)C[C@H](NC(=O)OC1CC2(CCN(C(=O)OC(C)(C)C)C2)C1)C(=O)N[C@@H](C[C@H]1CCNC1=O)C(O)S(=O)(=O)O (stereo partly drawn) [Compound 5c, Sodium (2S)-2-((S)-2-((((6-(tert-butoxycarbonyl)-6-azaspiro[3.4]octan-2-yl)oxy)carbonyl)amino)-4-methylpentanamido)-1-hydroxy-3-((R)-2-oxopyrrolidin-3-yl)propane-1-sulfonate] | > 100
CC(C)C[C@H](NC(=O)OC1CCC2(C1)CN(C(=O)OC(C)(C)C)C2)C(=O)N[C@H](C=O)C[C@H]1CCNC1=O (stereo partly drawn) [Compound 6b, Tert-butyl 6-((((S)-4-methyl-1-oxo-1-(((S)-1-oxo-3-((R)-2-oxopyrrolidin-3-yl)propan-2-yl)amino)pentan-2-yl)carbamoyl)oxy)-2-azaspiro[3.4]octane-2-carboxylate] | > 100
CC(C)C[C@H](NC(=O)OC1CCC2(C1)CN(C(=O)OC(C)(C)C)C2)C(=O)N[C@@H](C[C@H]1CCNC1=O)C(O)S(=O)(=O)O (stereo partly drawn) [Compound 6c, Sodium (2S)-2-((2S)-2-((((2-(tert-butoxycarbonyl)-2-azaspiro[3.4]octan-6-yl)oxy)carbonyl)amino)-4-methylpentanamido)-1-hydroxy-3-((R)-2-oxopyrrolidin-3-yl)propane-1-sulfonate] | > 100
CC(C)C[C@H](NC(=O)OC1CC2(CCN(C(=O)C(C)C)CC2)C1)C(=O)N[C@H](C=O)C[C@H]1CCNC1=O [Compound 8b, 7-Isobutyryl-7-azaspiro[3.5]nonan-2-yl ((S)-4-methyl-1-oxo-1-(((S)-1-oxo-3-((R)-2-oxopyrrolidin-3-yl)propan-2-yl)amino)pentan-2-yl)carbamate] | > 100
CC(C)C[C@H](NC(=O)OC1CC2(CCN(C(=O)C(C)C)CC2)C1)C(=O)N[C@@H](C[C@H]1CCNC1=O)C(O)S(=O)(=O)O (stereo partly drawn) [Compound 8c, Sodium (2S)-1-hydroxy-2-((S)-2-((((7-isobutyryl-7-azaspiro[3.5]nonan-2-yl)oxy)carbonyl)amino)-4-methylpentanamido)-3-((R)-2-oxopyrrolidin-3-yl)propane-1-sulfonate] | > 100
CC(C)C[C@H](NC(=O)OC1CC2(CCN(C#N)CC2)C1)C(=O)N[C@H](C=O)C[C@H]1CCNC1=O [Compound 11b, 7-Cyano-7-azaspiro[3.5]nonan-2-yl ((S)-4-methyl-1-oxo-1-(((S)-1-oxo-3-((R)-2-oxopyrrolidin-3-yl)propan-2-yl)amino)pentan-2-yl)carbamate] | > 100
CC(C)C[C@H](NC(=O)OC1CC2(CCN(C#N)CC2)C1)C(=O)N[C@@H](C[C@H]1CCNC1=O)C(O)S(=O)(=O)O (stereo partly drawn) [Compound 11c, Sodium (2S)-2-((S)-2-((((7-cyano-7-azaspiro[3.5]nonan-2-yl)oxy)carbonyl)amino)-4-methylpentanamido)-1-hydroxy-3-((R)-2-oxopyrrolidin-3-yl)propane-1-sulfonate] | > 100
CC(C)C[C@H](NC(=O)OC1CN(C(=O)OC(C)(C)C)C1)C(=O)N[C@H](C=O)C[C@H]1CCNC1=O [Compound 12b, Tert-butyl 3-((((S)-4-methyl-1-oxo-1-(((S)-1-oxo-3-((R)-2-oxopyrrolidin-3-yl)propan-2-yl)amino)pentan-2-yl)carbamoyl)oxy)azetidine-1-carboxylate] | > 100
CC(C)C[C@H](NC(=O)OC1CN(C(=O)OC(C)(C)C)C1)C(=O)N[C@@H](C[C@H]1CCNC1=O)C(O)S(=O)(=O)O (stereo partly drawn) [Compound 12c, Sodium (2S)-2-((S)-2-((((1-(tert-butoxycarbonyl)azetidin-3-yl)oxy)carbonyl)amino)-4-methylpentanamido)-1-hydroxy-3-((R)-2-oxopyrrolidin-3-yl)propane-1-sulfonate] | > 100
CC(C)C[C@H](NC(=O)OC1(C)CN(C(=O)OC(C)(C)C)C1)C(=O)N[C@H](C=O)C[C@H]1CCNC1=O [Compound 13b, Tert-butyl 3-methyl-3-((((S)-4-methyl-1-oxo-1-(((S)-1-oxo-3-((R)-2-oxopyrrolidin-3-yl)propan-2-yl)amino)pentan-2-yl)carbamoyl)oxy)azetidine-1-carboxylate] | > 100
CC(C)C[C@H](NC(=O)OC1(C)CN(C(=O)OC(C)(C)C)C1)C(=O)N[C@@H](C[C@H]1CCNC1=O)C(O)S(=O)(=O)O (stereo partly drawn) [Compound 13c, Sodium (2S)-2-((S)-2-((((1-(tert-butoxycarbonyl)-3-methylazetidin-3-yl)oxy)carbonyl)amino)-4-methylpentanamido)-1-hydroxy-3-((R)-2-oxopyrrolidin-3-yl)propane-1-sulfonate] | > 100
CC(C)C[C@H](NC(=O)OCC1CN(C(=O)Cc2ccccc2)C1)C(=O)N[C@H](C=O)C[C@H]1CCNC1=O [Compound 15b, (1-(2-Phenylacetyl)azetidin-3-yl)methyl ((S)-4-methyl-1-oxo-1-(((S)-1-oxo-3-((R)-2-oxopyrrolidin-3-yl)propan-2-yl)amino)pentan-2-yl)carbamate] | > 100
CC(C)C[C@H](NC(=O)OCC1CN(C(=O)Cc2ccccc2)C1)C(=O)N[C@@H](C[C@H]1CCNC1=O)C(O)S(=O)(=O)O (stereo partly drawn) [Compound 15c, Sodium (2S)-1-hydroxy-2-((S)-4-methyl-2-((((1-(2-phenylacetyl)azetidin-3-yl)methoxy)carbonyl)amino)pentanamido)-3-((R)-2-oxopyrrolidin-3-yl)propane-1-sulfonate] | > 100
CC(C)C[C@H](NC(=O)OCC1CN(C(=O)C2CC3CCC2C3)C1)C(=O)N[C@H](C=O)C[C@H]1CCNC1=O (stereo partly drawn) [Compound 16b, (1-(Bicyclo[2.2.1]heptane-2-carbonyl)azetidin-3-yl)methyl ((S)-4-methyl-1-oxo-1-(((S)-1-oxo-3-((R)-2-oxopyrrolidin-3-yl)propan-2-yl)amino)pentan-2-yl)carbamate] | > 100
